Patent US20060141047A1, “Methods and compositions for delivery of catecholic butanes for treatment of obesity” (priority 2003, published 2006)
Values joined by “and” are separate entries in the source; they are usually repeats but may differ in a detail not shown here. Equal entries are not always repeated. Where two headings read alike, the source gives them in different places.

Columns and labels:
[1] = system: mammary carcinoma MX-1 xenograft; settings: intratumor injection or topical application, athymic mice, U.S. Pat. No. 5,008,294; cited from earlier work
[2] = Short-term oral feeding, M4N tissue levels by HPLC; format: in vivo, mice
Experimental: (§1) Tissue Distribution and Toxicity Analysis Following Short-Term and Long-Term Oral Feeding. For short-term feeding experiments, 30 mg of M4N dissolved in 300 μL castor oil was orally administered to each of 6 mice. At 2 h, 4 h, and 8 h post-administration time points, 2 mice were sacrificed, the organs and blood were collected, and the M4N extracted and quantitated as described below. In long-term feeding experiments, mice were fed food balls consisting of M4N dissolved in corn oil and Basal Mix (Harlan Teklad; Madison, Wis.; Cat. # TD 02273) for 14 weeks. Food balls weighed 9 g and contained 242 mg M4N each. Two mice, one male and one female, were reserved for long-term drug retention studies; and fourteen mice, both male and female, were used for long-term drug toxicity studies. At the end of feeding, mice were sacrificed, the organs and blood were collected, and the M4N extracted and quantitated as described below.
M4N Extraction and HPLC Analysis Following Oral Feeding. […] The dried samples were then analyzed quantitatively by HPLC and M4N was identified by mass spectroscopy using pure M4N as a standard.
In samples from short-term fed mice, dialysis was performed to further purify M4N from the tissue extracts. […] The dialysates were dried on benchtop and in a speed-vac, then analyzed by HPLC.
HPLC Quantitation of M4N. […]

[3] = Toxicokinetic (TK) analysis of M4N serum concentration; format: in vivo, Beagle Dogs; settings: dogs, CET or DMSO formulations, minimal toxicity
Experimental: Blood samples from the CET group animals were collected via the jugular vein on Study Day (SD) 1, SD 3, SD 6, and SD 8 at the following time points: predose, 0.25, 0.5, 1, 2, 4, 8, and 16 hours following the completion of the approximate 4-hour infusion.
Blood samples from the DMSO group animals were collected via the cephalic vein on SD 1, SD 3, SD 6, and SD 8 at the following time points: predose, 0.25, 0.5, 1, 2, 4, 8, and 16 hours following the final injection dose of M4N-DMSO.
Blood samples collected from both groups of animals were processed for plasma and serum for TK analysis.
The plasma and serum samples were sent to MedTox Laboratories, the Sponsor's designated laboratory for TK analysis. TK analysis of M4N plasma and serum concentration-time data was performed using a validated method (M200406) by MedTox Laboratories and analyzed by noncompartmental methods to obtain estimates of toxicokinetic parameters (where data allow), but not necessarily limited to, Cmax, Tmax and AUC.

[4] = format: in vivo; settings: for % Weight Change / Weight on End Date: M4N-fed mice
Experimental: as §1, with “In long-term feeding experiments, mice were fed food balls consisting of M4N dissolved in corn oil and Basal Mix (Harlan Teklad; Madison, Wis.; Cat. # TD 02273) for 14 weeks.” left out
In particular, weight was measured on a bi-weekly or monthly basis. […] However, to assess long-term drug toxicity, only the mice that were treated for more than 20 weeks were compared. A total of 14 mice were treated for more than 20 weeks, 6 M4N-treated and 8 control mice. Since females generally eat less than males and have lower body weight, comparisons were drawn between mice of the same sex. […] The fact that the control mice, both male and female, consumed much more food than the M4N-treated mice evidences a greater preference for food in the control subjects.

fat tissues = assay: Incubation of isolated fat tissue with CREM solvent plus M4N, fat weight; set-up: species or system mice
Experimental: (§2) While no definite conclusions can be made regarding most organs due to the small size of the populations tested, a decrease in adipocyte (fat cells) weight was nevertheless significant (0.84 g vs. 0.196 g) following a 20 week feeding with a fat-rich diet containing M4N. In particular, fat tissues from two control mice (C24 and C25) which were fed a fat-rich diet without M4N were isolated and incubated with CREM solvent or with CREM solvent plus M4N for a total period of 6 days (first extract 72 hours and second extract for an additional 72 hours). The fat cell weights were measured at 0 time, the third day and the sixth day following incubation in CREM solvent and without M4N.

[5] = dogs
Experimental: In this example the Maximal Tolerable Dose (MTD) of two different formulations of M4N [Cremaphor-Ethanol (CET) or Dimethyl Sulfoxide (DMSO)] to male and female Beagle Dogs was determined.
Dogs were treated prophylactically with an analgesic and antibiotic on the day of surgery and with antibiotics and/or analgesics following surgery (according to Gene Logic Inc. SOP Nos. 324.0.2, 325.0.1, and 326.0.2, as appropriate.) Other treatments were provided as recommended by the staff veterinarian. The catheter lines were flushed with saline during the postoperative recovery period with a frequency deemed appropriate by the Study Director.
Thus the M4N-DMSO group animals were administered with M4N-DMSO with eight intravenous injections via the non-VAP jugular vein every 30 minutes over a 4-hour period. This frequency of delivery mimicked the delivery of the test article using the infusion pump.
Animals from the CET group were observed during the entire infusion period and for at least one hour following end of infusion. The dogs in the DMSO group were observed throughout the jugular vein injection period and for at least one hour following the last (eighth) injection.

[6] = Tissue distribution of 3H-M4N after a single intraperitoneal or intravenous injection; format: in vivo, mice; settings: 3 hours post-injection, i.p. or i.v.
Experimental: M4N Tissue Distribution Studies Using 3H—M4N. […] The insoluble pellet was then further extracted with EtOH.
A mixture of tritiated and cold M4N was dissolved in a 6% Cremaphor EL, 6% ethanol, 88% saline solvent then injected intraperitoneally (i.p.) and intravenously (i.v.) via tail vein into mice. At 3 hours post-injection, the organs and blood were harvested and weighed, and the M4N was extracted. […] M4N was successfully distributed to various organs at 3 hours post-injection by both i.p. and i.v. routes of administration. […] Corroborating this, a very similar profile of distribution was observed using an oral route of administration described below. The majority of the recovered radioactivity localized to the gastrointestinal tract organs: the stomach, small intestine, caecum, and large intestine, in the range of 3 μg to 20 μg of M4N per gram of tissue.

[7] = Fresh weights of isolated organs after 20 week feeding with fat-rich diet containing M4N; format: in vivo, mice
Experimental: as §2

[8] = mouse, in vivo, ip
Experimental: M4N Tissue Distribution Studies Using 3H—M4N. Harlan ICR mice or C3 cell-induced tumor-bearing C57bl/6 mice were injected via tail vein or intraperitoneally with 100 μL of Cremaphor-ethanol based solvent containing 100 μCi of tritiated M4N and 60 mM of cold M4N. At the specified time post-injection, the mice were sacrificed, the organs and blood were collected, weighed, then dissolved overnight in 4 M guanidine isothiocyanate (GITC). The insoluble pellet was then further extracted with EtOH. Tritium content of both the GITC extract and the EtOH extract was measured on a Packard scintillation counter and the quantity of M4N in each organ was calculated based on the specific activity of the inoculum.
To determine the distribution of M4N in tissues over time following a single application, and also to assess the ability to deliver M4N to a distant tumor, six C3 cell-induced tumor bearing mice (A-F) were treated i.p. with ^3H— M4N as described above. At 4 hours, 6 hours, 18 hours, and 6 days post-injection, the quantities of ^3H— M4N in various tissues and the tumors were measured.

[9] = Maximum amount of M4N dissolved in Cremaphor EL/ethanol/saline solvent; format: physicochemical; settings: 6% Cremaphor EL, 6% ethanol, 88% saline
Experimental: To assess the toxicity of prolonged intraperitoneal systemic treatment with M4N, and to determine a safe dosage for the following xenograft experiments, the following toxicity test was performed.

[10] = system: HPV-16 transformed immortal mouse epithelial cells (C3); settings: intratumor injection, separately or together, U.S. Pat. No. 6,417,234 and 6,214,874; cited from earlier work

## CC(Cc1ccc(O)c(O)c1)C(C)Cc1ccc(O)c(O)c1 (stereo not drawn) [NDGA, nordihydroguaiaretic acid]
[1]
  Inhibition of tumor growth: Some evidence of inhibition of tumor growth

## COc1ccc(C[C@@H](C)[C@@H](C)Cc2ccc(OC)c(OC)c2)cc1OC [M4N, meso-1,4-bis(3,4-dimethoxyphenyl)-2,3-dimethylbutane]
[2]; 2 hours post-feeding, 30 mg M4N in castor oil, oral
  M4N in each tissue: < 2 ng per gram tissue
[2]; post-feeding, single oral 30 mg M4N
  Time of peak M4N levels: roughly 4 hours
[3]
  Blood levels of M4N achieved: up to 14,000 ng/ml
[4]; Female mice treated 20 weeks
  Average % Weight Change: 24.9%
  Average Amount of Food Consumed: 258.8 g
[4]; length of treatment 8 weeks
  % Weight Change: 20.5% and 18.1%
  Weight on End Date: 26.4 g and 24.1 g
[4]; length of treatment 9 weeks
  Weight on End Date: 18.9 g and 24.2 g and 19.7 g
[4]; length of treatment 11 weeks
  % Weight Change: 11.8%
  Weight on End Date: 20.8 g
[4]; Male mice treated 20 weeks
  Average % Weight Change: 21%
  Average Amount of Food Consumed: 225 g and 225.0 g
[4]; both male and female mice, long-term oral feeding
  Effect on appetite: reduced the appetite
[4]; mice, systemic or oral administration
  Effect on body weight: caused weight loss
[4]; mouse, in vivo, po
  Toxic effects on female mice: did not have toxic effects
Fat tissues; fat tissue of mouse C25, 72 hours in CREM solvent + 21.4 mg M4N
  Fat Weight After First Extraction: 0.481 g
Fat tissues; fat tissue of mouse C25, additional 72 hours (6 days total) in CREM solvent + M4N
  Fat Weight After Second Extraction: 0.059 g
[5]; CET vehicle
  Dose safely administered by intravenous infusion over four hours: up to 10 mg/kg
[5]; DMSO vehicle
  Dose safely administered by intravenous infusion over four hours: up to 100 mg/kg
[6]
  M4N detected in heart or blood: Little or no M4N
  M4N present in liver and fat: Significant quantities
[7]; Female, 20 week feeding
  Fresh organ weight, Bladder: 0.034 g
  Fresh organ weight, Caecum: 0.162 g
  Fresh organ weight, Colon: 0.195 g
  Fresh organ weight, Heart: 0.107 g
  Fresh organ weight, Kidney: 0.3 g
  Fresh organ weight, Liver: 1.153 g
  Fresh organ weight, Lung: 0.205 g
  Fresh organ weight, Pancreas: 0.18 g
  Fresh organ weight, Small Intestine: 1.193 g
  Fresh organ weight, Spleen: 0.08 g
  Fresh organ weight, Stomach: 0.243 g
  Fresh weight, Fat: 0.509 g
[7]; Male, 20 week feeding
  Fresh organ weight, Bladder: 0.026 g
  Fresh organ weight, Caecum: 0.133 g
  Fresh organ weight, Colon: 0.186 g
  Fresh organ weight, Heart: 0.319 g
  Fresh organ weight, Kidney: 0.35 g
  Fresh organ weight, Liver: 1.44 g
  Fresh organ weight, Lung: 0.156 g
  Fresh organ weight, Pancreas: 0.121 g
  Fresh organ weight, Small Intestine: 1.44 g
  Fresh organ weight, Small Vesicles: 0.154 g
  Fresh organ weight, Spleen: 0.065 g
  Fresh organ weight, Stomach: 0.177 g
  Fresh organ weight, Testes: 0.189 g
[7]; Male, 20 week feeding with fat-rich diet
  Fresh weight, Fat: 0.196 g
[8]
  M4N in the tumor: 294 ng M4N per gram of wet tumor
  M4N tissue levels at 6 days post-injection relative to levels at 6 hours: 5-10%
  Time of peak M4N tissue levels: approximately 6 hours
[9]
  Maximum amount of M4N which may be dissolved in the solvent: 20 mg/mL
[10]
  Suppression of tumor growth: some evidence of suppression of tumor growth

## C[C@H](Cc1ccc(OC(=O)CN(C)C)c(OC(=O)CN(C)C)c1)[C@@H](C)Cc1ccc(OC(=O)CN(C)C)c(OC(=O)CN(C)C)c1 [G4N, meso-1,4-bis[3,4-(dimethylaminoacetoxy)phenyl]-(2R,3S)-dimethylbutane]
[10]
  Suppression of tumor growth: some evidence of suppression of tumor growth
